Test results as given in the supplement of paper PMC10307832.

What was measured:
Test in all cases: relative viability (nuclei count vs DMSO), 5 days (fraction); higher = more cells survive
AZD5582 + Linsitinib = compound: C[C@@H](C(=O)N[C@@H](C1CCCCC1)C(=O)N2CCC[C@H]2C(=O)N[C@@H]3[C@@H](CC4=CC=CC=C34)OCC#CC#CCO[C@@H]5CC6=CC=CC=C6[C@@H]5NC(=O)[C@@H]7CCCN7C(=O)[C@H](C8CCCCC8)NC(=O)[C@H](C)NC)NC [AZD5582] + C[C@]1(O)C[C@@H](c2nc(-c3ccc4ccc(-c5ccccc5)nc4c3)c3c(N)nccn32)C1 [Linsitinib] (partner 1 µM)
Method in brief: (§1)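 Relative viability divides the nuclei count in treated wells by that in vehicle wells. Lung cancer cell lines were seeded in 1536-well plates, dosed by pin tool the next day, and fixed and stained after 5 days in one step with final 0.05% Triton X-100, 1% formaldehyde and 1 ug/ml Hoechst. Dosing was a single drug or a fixed anchor-drug dose plus five library-drug doses (not always all listed) in √10 steps, and values are medians of duplicate plates imaged at 4×.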

[1] = compound: Cn1nnc2c(C(N)=O)ncn2c1=O [Temozolomide] + C[C@@H](Oc1cc(-c2cnn(C3CCNCC3)c2)cnc1N)c1c(Cl)ccc(F)c1Cl [Crizotinib] (partner 1 µM)
Method in brief: as §1

Temozolomide + Alpelisib = compound: Cn1nnc2c(C(N)=O)ncn2c1=O [Temozolomide] + Cc1nc(NC(=O)N2CCC[C@H]2C(N)=O)sc1-c1ccnc(C(C)(C)C(F)(F)F)c1 [Alpelisib] (partner 2 µM)
Method in brief: as §1

AZD5582 + Alpelisib = compound: C[C@@H](C(=O)N[C@@H](C1CCCCC1)C(=O)N2CCC[C@H]2C(=O)N[C@@H]3[C@@H](CC4=CC=CC=C34)OCC#CC#CCO[C@@H]5CC6=CC=CC=C6[C@@H]5NC(=O)[C@@H]7CCCN7C(=O)[C@H](C8CCCCC8)NC(=O)[C@H](C)NC)NC [AZD5582] + Cc1nc(NC(=O)N2CCC[C@H]2C(N)=O)sc1-c1ccnc(C(C)(C)C(F)(F)F)c1 [Alpelisib] (partner 2 µM)
Method in brief: as §1

Work on NCI-H1703 yielded a relative viability (AZD5582 + Linsitinib; first compound 0.005 µM) of 0.666, a relative viability (AZD5582 + Linsitinib; first compound 0.01581 µM) of 1.02 and a relative viability (AZD5582 + Linsitinib; first compound 0.05 µM) of 0.44. The relative viability ([1]; first compound 0.2 µM) was 0.746, the relative viability ([1]; first compound 0.6325 µM) was 0.648 and the relative viability ([1]; first compound 2 µM) was 0.876. It also gave a relative viability ([1]; first compound 6.325 µM) of 0.8, a relative viability ([1]; first compound 20 µM) of 0.846 and a relative viability (Temozolomide + Alpelisib; first compound 0.2 µM) of 0.367. It also gave a relative viability (Temozolomide + Alpelisib; first compound 0.6325 µM) of 0.344, a relative viability (Temozolomide + Alpelisib; first compound 2 µM) of 0.463 and a relative viability (Temozolomide + Alpelisib; first compound 6.325 µM) of 0.288. For the same cell line, the relative viability (Temozolomide + Alpelisib; first compound 20 µM) was 0.315, the relative viability (AZD5582 + Alpelisib; first compound 0.001581 µM) was 0.208 and the relative viability (AZD5582 + Alpelisib; first compound 0.005 µM) was 0.323. The relative viability (AZD5582 + Alpelisib; first compound 0.01581 µM) was 0.358 and the relative viability (AZD5582 + Alpelisib; first compound 0.05 µM) was 0.255.
